Laboratory results from ChEMBL document CHEMBL1201862, “PubChem BioAssay data set” (2004).
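A five-concentration, 48-hour dose response in 96-well plates underlies each endpoint, interpolated linearly between surrounding concentrations. GI50 marks 50% less growth.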 Calls of active or inactive are those of the source. Rule as the data show it: active = GI50 up to about 1.1 µM and inactive = higher.

Legend:
Assay in all cases: NCI-60 cell line screen, 48 h
A498 = test system: A498
MCF7 = test system: MCF7
786-0 = test system: 786-0
HL-60 = test system: HL-60
DU-145 = test system: DU-145
NCI-H460 = test system: NCI-H460
IGROV-1 = test system: IGROV-1
UACC-62 = test system: UACC-62
HT-29 = test system: HT-29
SR = test system: SR
SK-MEL-5 = test system: SK-MEL-5
TK-10 = test system: TK-10
HOP-62 = test system: HOP-62
HCT-116 = test system: HCT-116
RXF 393 = test system: RXF 393
RPMI-8226 = test system: RPMI-8226
SNB-75 = test system: SNB-75
CAKI-1 = test system: CAKI-1
NCI-H522 = test system: NCI-H522

Measured: GI50

CN1c2ccccc2C(=O)NC12CCN(CC1COc3ccccc3O1)CC2 (centres undefined)
inactive: A498 20.3 µM | MCF7 31.8 µM | 786-0 69.7 µM | HL-60 25.4 µM | DU-145 61 µM | NCI-H460 21.3 µM | IGROV-1 45.1 µM | UACC-62 29.7 µM | HT-29 31.9 µM | SR 23.8 µM | SK-MEL-5 16.2 µM | TK-10 44.8 µM | HOP-62 49.8 µM | HCT-116 37.3 µM | RXF 393 > 100 µM | RPMI-8226 30.5 µM | SNB-75 > 100 µM

CC(C)=C1C(=O)C[C@]2(C)C/C=C(\C)CC/C=C(\C)CC[C@@H]12
inactive: A498 20.8 µM | MCF7 11.5 µM | 786-0 8.69 µM | DU-145 16.7 µM | IGROV-1 9.4 µM | UACC-62 7.74 µM | HT-29 9.08 µM | SR 9.86 µM | SK-MEL-5 8.38 µM | TK-10 9.42 µM | CAKI-1 7.96 µM | HOP-62 9.08 µM | HCT-116 8.32 µM | RXF 393 7.29 µM | RPMI-8226 11.9 µM | SNB-75 9.66 µM | NCI-H522 6.97 µM

O=S(=O)(Oc1ccc2oc3ccccc3c2c1-c1c(OS(=O)(=O)C(F)(F)F)ccc2oc3ccccc3c12)C(F)(F)F
inactive: A498 > 100 µM | MCF7 > 100 µM | 786-0 > 100 µM | HL-60 8.28 µM | DU-145 > 100 µM | NCI-H460 > 100 µM | IGROV-1 > 100 µM | UACC-62 > 100 µM | HT-29 > 100 µM | SR > 100 µM | SK-MEL-5 > 100 µM | TK-10 > 100 µM | CAKI-1 > 100 µM | HOP-62 > 100 µM | HCT-116 > 100 µM | RXF 393 > 100 µM | RPMI-8226 > 100 µM | NCI-H522 > 100 µM

O=C(O)CNC(=O)c1c2ccccc2nc2ccccc12
inactive: A498 > 100 µM | MCF7 > 100 µM | 786-0 > 100 µM | DU-145 > 100 µM | NCI-H460 > 100 µM | IGROV-1 > 100 µM | UACC-62 > 100 µM | HT-29 > 100 µM | SR > 100 µM | SK-MEL-5 > 100 µM | TK-10 > 100 µM | CAKI-1 > 100 µM | HOP-62 > 100 µM | HCT-116 > 100 µM | RPMI-8226 > 100 µM | SNB-75 > 100 µM | NCI-H522 > 100 µM
